Results as given in patent publication US20260133193A1, “COMPOSITIONS AND METHODS FOR TREATING INFLAMMATORY DISEASES” (University of Washington, priority 2018, published 2026).

Experiments:
Type in all cases: cell-based, human
monocytes = assay: Monocyte phagocytosis of RNP-ICs; conditions: RNase exposure or R848 priming
Procedure: Monocytes were incubated with R848 or neutrophil supernatant prior to addition of RNP-ICs or beads. Phagocytosis was determined by flow cytometry.
SLE IgG, SmRNP and heat-aggregated IgG (HAGG) were labeled with Alexa-647 according to manufacturer's protocol (Life Technologies). Neutrophils, or PBMCs, from healthy individual were stimulated with different ICs, FITC-conjugated latex beads or zymosan (100 μg/mL, Life Technologies) for 30 minutes at 37° C. and immediately analyzed for phagocytosis. […] In some experiments, R848, at a concentration of 2 μg/mL, or neutrophil supernatant, was added 30 and 90 minutes before addition of the phagocytic stimuli, respectively.
Plasmacytoid dendritic cells were identified based on their expression of BDCA-4 (Miltenyi Biotech) and monocytes based on their expression of CD14 (Biolegend). In some experiments neutrophil supernatant (generated by incubating neutrophils with R848 for 90 minutes) were added to PBMCs with or without presence of the pan-protease inhibitor (1×), and expression of FcgRs and phagocytic ability analyzed in monocytes by flow cytometry as described above.

FcgRIIA on monocytes = assay: FcgRIIA and CD11b on monocytes (PBMCs with R848, neutrophils or neutrophil supernatant)
Procedure: Since we observed prominent protease-mediated shedding of FcgRIIA in neutrophils, we next asked if activated neutrophils could induce shedding of FcgRIIA in other immune cells. PBMCs were co-incubated with neutrophils (PMNs) in the presence of R848 and a pan-protease inhibitor. Levels of FcgRIIA on monocytes (CD14+), and pDCs (CD304+) were determined by flow cytometry and expressed as FcgRIIA (% of control) as compared to PBMCs incubated in medium in absence of neutrophils. […]
To determine if the loss of monocyte FcgRIIA was mediated through cell-cell interactions or due to a soluble neutrophil-derived factor, we added supernatant from TLR7/8-activated neutrophils to monocytes. Specifically, neutrophil supernatant, derived from non-stimulated (no, n=5) or R848-stimulated (R848, n=9) neutrophils, were added to monocytes in presence of indicated inhibitors (CMK; furin inhibitor, n=5, and Pan; pan-protease inhibitor, n=5) and monocyte FcgRIIA levels analyzed by flow cytometry. […]
Neutrophils and PBMCs were incubated at a 2:1 ratio (500,000 vs 250,000 cells) with the pan-protease inhibitor (1×) for 30 minutes followed by R848 (2 μg/mL) for an additional 60 minutes and analyzed for FcgR levels by flow cytometry. […]

FcgRIIA on neutrophils = assay: FcgRIIA shedding, fluorimetry of shed antibody-FcgRIIA complexes in supernatant; conditions: pre-labeled neutrophils, R848 stimulation
Procedure: To assess if reduction in FcgRIIA cell surface expression was dependent on proteolytic cleavage or internalization of the receptor, we analyzed total FcgRIIA expression in fixed permeabilized neutrophils. Specifically, neutrophils were activated with R848 and FcgRIIA levels analyzed in permeabilized cells by flow cytometry. The experiment was repeated five times and compared using paired t test (P=0.0075). […] Specifically, FcgRIIA cell surface expression was analyzed by flow cytometry using two antibodies, FUN2 and IV.3, in non-stimulated and R848-stimulated neutrophils. The experiment was repeated six times; combined results were compared using paired t test (P<0.0001). […] For this experiment, neutrophils were labeled with FITC-conjugated IV.3 anti-FcgRIIA or anti-FUN-2 antibodies and the shed antibody-FcgRIIA complex quantified by fluorimetry following R848 stimulation with or without prior addition of a pan-protease inhibitor. […]
For detection of shed FcgRIIA, neutrophils were pre-labeled with FITC-conjugated anti-CD32A antibody IV.3 (Stemcell Technologies) or FITC-conjugated anti-CD32A antibody FUN-2 (Biolegend), and washed extensively prior to activation with R848. Cell free supernatant was analyzed for shed FcgRIIA-anti-CD32A-FITC complexes by flourimetry (Synergy 2, BioTek) using anti-CD32A antibodies as a standard curve. […]

neutrophils = assay: ROS analysis in neutrophils (DHR123, OxyBURST); conditions: flow cytometry and fluorimetry, cell impermeable ROS dye
Akt and S6 = assay: S6 and Akt phosphorylation by flow cytometry; conditions: TLR7/8 activation with R848
Procedure: We next asked which pathway(s) were acting upstream of NADPH oxidase to induce FcgRIIA shedding. […] Phosphorylation of Akt and S6 was determined by flow cytometry upon TLR7/8 activation. The experiment was repeated four times; combined results were compared using paired t test (pS6, P=0.042; pAkt, P=0.037). […] To confirm the role for PI3K in TLR-mediated activation of ROS and subsequent shedding of FcgRIIA, neutrophils were incubated with the PI3K inhibitor LY294002 prior to addition of TLR agonist. Blocking PI3K signaling abrogated TLR-mediated ROS generation, phosphorylation of ncf1 at S345 as well as shedding of FcgRIIA. Briefly, neutrophils, pre-treated with inhibitors of PI3K (LY294002, 10 μM) or NADPH oxidase (DPI, 25 μM), were activated with R848 and analyzed for ROS generation by flow cytometry using DHR123. […] Additionally, neutrophils were pre-treated with the PI3K inhibitor LY294002 (10 μM) and analyzed for R848-mediated shedding of FcgRIIA by flow cytometry. […]
Neutrophils were activated by R848 for 15 minutes, fixed and permeabilized according to manufacturer's instructions (BioLegend), and incubated with a specific antibody recognizing phosphorylated S235/236 in S6 (Cell Signaling) or phosphorylated S473 in Akt (BD Biosciences) for 60 minutes. pS6 and pAkt levels were analyzed by flow cytometry and expressed as percent positive cells as compared to non-stimulated cells.

For `CCOCc1nc2c(N)nc3ccccc3c2n1CC(C)(C)O` [R848], the “monocyte phagocytosis of RNP-ICs” value (monocytes) was “not affected”, the “monocyte cell surface CD11b” value (FcgRIIA on monocytes; R848) was “up-regulation of cell surface CD11b” and the “monocyte cell surface FcgRIIA levels” value (FcgRIIA on monocytes; flow cytometry) was “unchanged”. For the same compound, the “cell-free FcgRIIA-IV.3 (anti-CD32A) complexes in supernatant” value (FcgRIIA on neutrophils) was “detected in increased amounts in the cell-free supernatant”, the “cellular localization of ROS generation” value (neutrophils) was “induced intracellular generation of ROS, but no detectable extracellular ROS” and the “levels of phosphorylated Akt and S6” value (Akt and S6) was “induced increased levels of phosphorylated Akt and S6”.
